The values below come from publication PMC12736018, “Stereoselective Cytotoxicity of Enantiopure 3,3-Dichloro-γ-lactams: Correlating In Vitro Activity with In Vivo Tolerability” (Molecules, 2025).

As a reminder, the EC50 is the midpoint of the concentration-response curve. What is called IC50 is the concentration at which inhibition is half-maximal.

A short description of one data set: Hemolysis assay. The note with it: human, human erythrocyte suspension, pH 7.4, 10 and 80 µg/mL. In kind it is cell-based. Here is the method: Human blood samples were obtained from the Banc de Sang i Teixits de Barcelona (Barcelona, Spain) under the Catalan Department of Health. Blood was collected in tubes containing the anticoagulant EDTA-K3. Samples were centrifuged at 3000 rpm and 4 °C for 10 min (Megafuge 2.0 R, Heraeus Instruments, Hanau, Germany) to promote sedimentation, after which plasma was carefully eliminated using a Pasteur pipette. The remaining pellet was washed with PBS (pH 7.4) three times to remove residual leukocytes and platelets while concentrating erythrocytes. After the final wash, the erythrocyte pellet was resuspended in PBS (pH 7.4) at a 1:1 ratio to achieve a final erythrocyte concentration of 8 × 10^9 cells/mL.
The hemolysis assay is used to evaluate the ability of the tested compounds to disrupt erythrocyte membranes. Stock solutions of each compound were prepared in PBS (pH 7.4) at a concentration of 1 mg/mL. Volumes ranging from 10 to 80 μL were transferred into polystyrene tubes, followed by the addition of 25 µL of the erythrocyte suspension, bringing the total volume to 1 mL. The samples were incubated at room temperature under gentle rotation and subsequently centrifuged at 10,000 rpm for 5 min. The absorbance of the resulting supernatants at 540 nm (Shimadzu UV-160A, Shimadzu, Duisburg, Germany) was measured and compared with that of the positive control (erythrocytes hemolyzed with distilled water) and the negative control (erythrocytes suspension in PBS, pH 7.4).
The degree of hemolysis was determined using the following equation:Hemolysis (%) = 100 × (Abs − Abs0)/(Abs100 − Abs0) where Abs, Abs0 and Abs100 are the absorbance of the test samples, of the suspension treated with isotonic phosphate–buffered saline (PBS) and of the suspension of complete hemolysis treated with distilled water, respectively.

A further data set relates to zebrafish embryos. The experiment in a line: Fish Embryo Acute Toxicity (FET) assay: lethality and dysmorphogenesis. In kind it is in vivo. The note with it: for EC50: Danio rerio, read-out: EC50 (dysmorphogenesis); for teratogenicity classification: TI > 2; for Teratogenic Index (TI = LC50/EC50): zebrafish embryos. Here is the method:
(§1) (2 mM CaCl2·2H2O; 0.5 mM MgSO4·7H2O; 0.75 mM NaHCO3; 0.07 mM KCl). The fish were maintained at a temperature of 26 ± 1 °C on a 14 h light and 10 h dark cycle and were daily fed in the morning with Artemia salina, and with commercial flake food in the afternoon (SDS400, Special Diet Services, Dietex, France). The day before eggs were needed, males and females were placed in a breeding tank with plants at a 2:1 male-to-female ratio. The following morning, eggs were collected 30 min after the lights were turned on. […] Fertilized, non-coagulated, and synchronously divided eggs were selected using a stereomicroscope (Motic SMZ168, Motic China group, Ltd., Xiamen, China) and transferred to 6-well plates (10 embryos/well). Embryos were exposed to freshly prepared tested concentrations of the compound in 0.3× Danieau’s solution. Chemical stock solution was prepared in 100% dimethylsulfoxide (DMSO) and subsequently diluted in Danieau’s buffer with a final DMSO concentration of 1% (v/v). Test was carried out using five concentrations with a negative control, solvent control with 1% of DMSO. Embryos were incubated at 27 ± 1 °C with a light–dark cycle of 14:10 h until 72 h post-fertilization (hpf) under semi-static conditions, as exposure solutions were renewed by freshly prepared solutions every 24 h.
(§2) At 24, 48 and 72 hpf embryos were observed under a stereomicroscope to assess lethality. […] At the end of the test, dysmorphogenesis was evaluated in live embryos only. The average lethality and dysmorphogenesis were calculated for 10 embryos per concentration, followed by averaging the results of at least three independent experiments. […] The Teratogenic Index (TI) was deter-mined as the ratio between the LC50 and EC50 (TI = LC50/EC50).

Experiment in data set [1]: as above
Format: in vivo. Particulars: zebrafish (Danio rerio), in vivo; zebrafish embryos exposed 2 to 72 hpf, 1.95-125 µg/mL; read-out: LC50 (lethal concentration 50). Here is the method:
as §1, §2

The subject of the next data set is HeLa cells. The experiment in a line: MTT cell viability assay, HeLa. In kind it is cell-based. The note with it: Homo sapiens, 24 h. The protocol: (§3) The murine Swiss albino fibroblast (3T3), the immortal human keratinocyte (HaCaT), the squamous cell carcinoma (A431), the human epithelial carcinoma (HeLa) and the human breast adenocarcinoma (MCF-7) cell lines were sourced from Celltec UB (Barcelona, Spain). All cells were maintained and grown in DMEM medium (4.5 g/L glucose) supplemented with 10% (v/v) FBS, 2 mM L-glutamine, 100 U/mL penicillin and 100 μg/mL streptomycin at 37 °C, 5% CO2. Cells were routinely cultured in 75 cm^2 culture flasks and were trypsinized using trypsin-EDTA when the cells reached approximately 80%. Cell concentration in the resulting suspension was assessed using the trypan blue assay, which enables direct discrimination between viable (unstained) and non-viable (blue) cells.
(§4) T3 and HaCaT cells (1 × 10^5 cells/mL), along with A431, HeLa, and MCF-7 cells (5 × 10^4 cells/mL), were cultured at defined seeding densities in the 60 central wells of a 96-well plate. Cells were first incubated for 24 h under standard incubator conditions (5% CO2, 37 °C). After this period, the culture medium was removed, and the cells were incubated for an additional 24 h with their corresponding compound solutions (1 mg/mL) previously diluted in a minimum amount of DMF (dimethylformamide) and then in DMEM medium supplemented with 5% FBS (100 µL) at the required concentration range (20 to 250 µg/mL). Cell viability following exposure to the lactam derivatives was evaluated using two complementary assays: NRU and MTT.
(§5) Only living cells can reduce the yellow tetrazolium salt 3-(4,5-dimethyl-2-thiazolyl)-2,5-diphenyltetrazolium bromide (MTT) to insoluble purple formazan crystals. After a 24 h incubation of the cells with their corresponding NPs, the medium was removed and 100 µL of MTT (Sigma-Aldrich, St. Louis, MO, USA) in PBS (5 mg/mL) diluted 1:10 in culture medium without phenol red and without FBS (Lonza, Verviers, Belgium) was added to the cells. After 3 h of incubation, the medium was removed. Thereafter, 100 µL of DMSO (Sigma-Aldrich, St. Louis, MO, USA) was added to each well to dissolve the purple formazan crystals. Agitation and absorbance measurements of the extracted solution were carried out under the same conditions described for the NRU assay. The effect of each treatment was then expressed as the percentage of tetrazolium salt reduction by viable cells relative to untreated controls.
(§6) The half-maximal inhibitory concentration (IC50) values for the different formulations, across cell lines and experimental endpoints, were obtained by fitting the concentration-dependent viability curves. […] These findings reflect the very low cytotoxicity of the compounds toward these cell lines.
On the technique in general: Tetrazolium dyes change colour on reduction, which living cells bring about.

A further data set concerns MCF-7 cells. The experiment in a line: MTT cell viability assay, MCF-7. In kind it is cell-based. Particulars: Homo sapiens, MCF7; MCF-7, MTT, 24 h. Here is the method: as §3, §4, §5, §6

Converted amounts (≈) assume the structure as drawn.

For `C[C@H](c1ccccc1)N1C[C@H](C)C(Cl)(Cl)C1=O` [Compound 4], in “Hemolysis assay”, the hemolysis was less than 2%. In the data set on zebrafish embryos, the EC50 was 11.2 µg/mL (≈ 41.3 µM), the teratogenicity classification result is “potential teratogens” and the “Teratogenic Index (TI = LC50/EC50)” value is recorded as 2.95. In the data set with zebrafish embryos (at 15.6 µg/mL), the “embryos exhibiting morphological abnormalities” value was “more than 20%”. In data set [1], the LC50 was found to be 33.2 µg/mL (≈ 122 µM). In the data set on HeLa cells, half-maximal inhibition (IC50) was put at 94.3 µg/mL (≈ 346 µM). In the data set on MCF-7 cells, this molecule displayed an IC50 of 77.8 µg/mL (≈ 286 µM).
`C[C@@H]1CN([C@@H](C)c2ccccc2)C(=O)C1(Cl)Cl` [Compound 3, (R)-3,3-dichloro-4-methyl-1-((S)-1-phenylethyl)pyrrolidin-2-one] displayed a hemolysis in the data set “Hemolysis assay” of less than 2%. Moreover, in the data set with zebrafish embryos, the EC50 amounted to 18.3 µg/mL (≈ 67.1 µM), the teratogenicity classification entry is on record as “potential teratogens” and the “Teratogenic Index (TI = LC50/EC50)” value was found to be 3.5. In addition, the LC50 in data set [1] came to 63.8 µg/mL (≈ 234 µM). In addition, inhibition in the data set with HeLa cells was half-maximal at 184 µg/mL (≈ 675 µM) (IC50). For the same molecule, half-maximal inhibition in the data set with MCF-7 cells (IC50) was put at 193 µg/mL (≈ 708 µM).
